Source: US20220339143A1, “TAK-925 FOR USE IN TREATING NARCOLEPSY” (Takeda Pharmaceutical Company Limited, priority 2019, published 2022)
Like-named read-outs stand apart in the source and are kept apart here.

Test: Single dose PK in healthy subjects (Cohorts 1, 2, S1 and S2), plasma
Type: in vivo, human
Details: human, plasma, iv, healthy subjects
Experimental: This study investigates (i) the safety and tolerability of Compound A (methyl (2R,3S)-3-((methylsulfonyl)amino)-2-(((cis-4-phenylcyclohexyl)oxy)methyl)piperidine-1-carboxylate) when a single dose given as a 9 hour continuous IV infusion is administered to healthy adults, healthy elderly subjects and patients with narcolepsy type 1 (NT1); (ii) the pharmacokinetics of Compound A when a single dose given as a 9 hour continuous IV infusion is administered to healthy adults, healthy elderly subjects and patients with narcolepsy type 1; and (iii) the pharmacodynamics (PD) effects of Compound A, primarily by evaluation of the sleep latency on MWT when a single dose given as a 9 hour continuous IV infusion is administered to patients with narcolepsy type 1.
Pharmacokinetics: Concentrations of Compound A in plasma, and CSF, and pharmacokinetics parameters.
On average, the time to reach the plateau appeared to be approximately 3 to 4 hours after the start of infusion. […] After switching off the IV infusion, Compound A plasma concentrations declined rapidly and in a biphasic manner with a mean terminal disposition phase t1/2z ranging approximately from 3.4 to 5.1 hours across all doses. […] Table 5 provides a summary of plasma concentrations of Compound A after a single IV infusion in healthy subjects. Table 6 provides a summary of pharmacokinetic parameters of Compound A after a single IV infusion in healthy subjects.

SMILES: COC(=O)N1CCC[C@H](NS(C)(=O)=O)[C@@H]1CO[C@H]1CC[C@@H](c2ccccc2)CC1 [Compound A, methyl (2R,3S)-3-((methylsulfonyl)amino)-2-(((cis-4-phenylcyclohexyl)oxy)methyl)piperidine-1-carboxylate]
- AUC(0-inf) (14 mg, 14 mg single IV infusion, read-out: AUCinf Median): 322 ng·h/mL
- AUC(0-t) (14 mg, 14 mg single IV infusion, read-out: AUClast Geo Mean): 323 ng·h/mL
- AUC(0-t) (14 mg, 14 mg single IV infusion, read-out: AUClast Mean): 326 ng·h/mL
- AUC(0-t) (14 mg, 14 mg single IV infusion, read-out: AUClast Median): 322 ng·h/mL
- clearance (14 mg, 14 mg single IV infusion, read-out: CL Mean (converted)): 718 mL/min
- clearance (14 mg, 14 mg single IV infusion, read-out: CL Median (converted)): 723 mL/min
- concentration at 9 h (14 mg, 14 mg single IV infusion, read-out: Ceoi Geo Mean): 29.8 ng/mL
- concentration at 9 h (14 mg, 14 mg single IV infusion, read-out: Ceoi Mean): 30.1 ng/mL
- concentration at 9 h (14 mg, 14 mg single IV infusion, read-out: Ceoi Median): 30.8 ng/mL
- Cmax (14 mg, 14 mg single IV infusion, read-out: Cmax Geo Mean): 36.8 ng/mL
- Cmax (14 mg, 14 mg single IV infusion, read-out: Cmax Mean): 37 ng/mL
- Cmax (14 mg, 14 mg single IV infusion, read-out: Cmax Median): 37 ng/mL
- Vd (14 mg, 14 mg single IV infusion, read-out: Vss Mean): 77.1 L
- Vd (14 mg, 14 mg single IV infusion, read-out: Vss Median): 72.7 L
- Vd (14 mg, 14 mg single IV infusion, read-out: Vz Mean): 272 L
- Vd (14 mg, 14 mg single IV infusion, read-out: Vz Median): 253 L
- Tmax (14 mg, 14 mg single IV infusion, read-out: tmax Mean): 3.67 h
- Tmax (14 mg, 14 mg single IV infusion, read-out: tmax Median): 4 h
- AUC (28 mg, 28 mg single IV infusion, read-out: AUC24 Geo Mean): 513 ng·h/mL
- AUC (28 mg, 28 mg single IV infusion, read-out: AUC24 Mean): 519 ng·h/mL
- AUC (28 mg, 28 mg single IV infusion, read-out: AUC24 Median): 543 ng·h/mL
- AUC(0-inf) (28 mg, 28 mg single IV infusion, read-out: AUCinf Geo Mean): 524 ng·h/mL
- AUC(0-inf) (28 mg, 28 mg single IV infusion, read-out: AUCinf Mean): 530 ng·h/mL
- AUC(0-inf) (28 mg, 28 mg single IV infusion, read-out: AUCinf Median): 549 ng·h/mL
- AUC(0-t) (28 mg, 28 mg single IV infusion, read-out: AUClast Geo Mean): 513 ng·h/mL
- AUC(0-t) (28 mg, 28 mg single IV infusion, read-out: AUClast Mean): 519 ng·h/mL
- AUC(0-t) (28 mg, 28 mg single IV infusion, read-out: AUClast Median): 543 ng·h/mL
- clearance (28 mg, 28 mg single IV infusion, read-out: CL Mean (converted)): 903 mL/min
- clearance (28 mg, 28 mg single IV infusion, read-out: CL Median (converted)): 850 mL/min
- concentration at 9 h (28 mg, 28 mg single IV infusion, read-out: Ceoi Geo Mean): 52.1 ng/mL
- concentration at 9 h (28 mg, 28 mg single IV infusion, read-out: Ceoi Mean): 52.5 ng/mL
- concentration at 9 h (28 mg, 28 mg single IV infusion, read-out: Ceoi Median): 55.3 ng/mL
- Cmax (28 mg, 28 mg single IV infusion, read-out: Cmax Geo Mean): 57.6 ng/mL
- Cmax (28 mg, 28 mg single IV infusion, read-out: Cmax Mean): 58.1 ng/mL
- Cmax (28 mg, 28 mg single IV infusion, read-out: Cmax Median): 59.3 ng/mL
- Vd (28 mg, 28 mg single IV infusion, read-out: Vss Mean): 116 L
- Vd (28 mg, 28 mg single IV infusion, read-out: Vss Median): 105 L
- Vd (28 mg, 28 mg single IV infusion, read-out: Vz Mean): 392 L
- Vd (28 mg, 28 mg single IV infusion, read-out: Vz Median): 406 L
- Tmax (28 mg, 28 mg single IV infusion, read-out: tmax Mean): 3 h
- Tmax (28 mg, 28 mg single IV infusion, read-out: tmax Median): 3 h
- AUC (56 mg, 56 mg single IV infusion, read-out: AUC24 Geo Mean): 1060 ng·h/mL
- AUC (56 mg, 56 mg single IV infusion, read-out: AUC24 Mean): 1070 ng·h/mL
- AUC (56 mg, 56 mg single IV infusion, read-out: AUC24 Median): 1040 ng·h/mL
- AUC(0-inf) (56 mg, 56 mg single IV infusion, read-out: AUCinf Geo Mean): 1060 ng·h/mL
- AUC(0-inf) (56 mg, 56 mg single IV infusion, read-out: AUCinf Mean): 1080 ng·h/mL
- AUC(0-inf) (56 mg, 56 mg single IV infusion, read-out: AUCinf Median): 1050 ng·h/mL
- AUC(0-t) (56 mg, 56 mg single IV infusion, read-out: AUClast Geo Mean): 1060 ng·h/mL
- AUC(0-t) (56 mg, 56 mg single IV infusion, read-out: AUClast Mean): 1070 ng·h/mL
- AUC(0-t) (56 mg, 56 mg single IV infusion, read-out: AUClast Median): 1040 ng·h/mL
- clearance (56 mg, 56 mg single IV infusion, read-out: CL Mean (converted)): 885 mL/min
- clearance (56 mg, 56 mg single IV infusion, read-out: CL Median (converted)): 891 mL/min
- concentration at 9 h (56 mg, 56 mg single IV infusion, read-out: Ceoi Geo Mean): 115 ng/mL
- concentration at 9 h (56 mg, 56 mg single IV infusion, read-out: Ceoi Mean): 115 ng/mL
- concentration at 9 h (56 mg, 56 mg single IV infusion, read-out: Ceoi Median): 112 ng/mL
- Cmax (56 mg, 56 mg single IV infusion, read-out: Cmax Geo Mean): 123 ng/mL
- Cmax (56 mg, 56 mg single IV infusion, read-out: Cmax Mean): 123 ng/mL
- Cmax (56 mg, 56 mg single IV infusion, read-out: Cmax Median): 122 ng/mL
- Vd (56 mg, 56 mg single IV infusion, read-out: Vss Mean): 91.4 L
- Vd (56 mg, 56 mg single IV infusion, read-out: Vss Median): 89.1 L
- Vd (56 mg, 56 mg single IV infusion, read-out: Vz Mean): 291 L
- Vd (56 mg, 56 mg single IV infusion, read-out: Vz Median): 282 L
- Tmax (56 mg, 56 mg single IV infusion, read-out: tmax Mean): 4.5 h
- Tmax (56 mg, 56 mg single IV infusion, read-out: tmax Median): 4 h
- AUC (112 mg, 112 mg single IV infusion, read-out: AUC24 Geo Mean): 2070 ng·h/mL
- AUC (112 mg, 112 mg single IV infusion, read-out: AUC24 Mean): 2090 ng·h/mL
- AUC (112 mg, 112 mg single IV infusion, read-out: AUC24 Median): 2130 ng·h/mL
- AUC(0-inf) (112 mg, 112 mg single IV infusion, read-out: AUCinf Geo Mean): 2090 ng·h/mL
- AUC(0-inf) (112 mg, 112 mg single IV infusion, read-out: AUCinf Mean): 2110 ng·h/mL
- AUC(0-inf) (112 mg, 112 mg single IV infusion, read-out: AUCinf Median): 2160 ng·h/mL
- AUC(0-t) (112 mg, 112 mg single IV infusion, read-out: AUClast Geo Mean): 2070 ng·h/mL
- AUC(0-t) (112 mg, 112 mg single IV infusion, read-out: AUClast Mean): 2090 ng·h/mL
- AUC(0-t) (112 mg, 112 mg single IV infusion, read-out: AUClast Median): 2130 ng·h/mL
- clearance (112 mg, 112 mg single IV infusion, read-out: CL Mean (converted)): 902 mL/min
- clearance (112 mg, 112 mg single IV infusion, read-out: CL Median (converted)): 867 mL/min
- concentration at 9 h (112 mg, 112 mg single IV infusion, read-out: Ceoi Geo Mean): 214 ng/mL
- concentration at 9 h (112 mg, 112 mg single IV infusion, read-out: Ceoi Mean): 216 ng/mL
- concentration at 9 h (112 mg, 112 mg single IV infusion, read-out: Ceoi Median): 221 ng/mL
- Cmax (112 mg, 112 mg single IV infusion, read-out: Cmax Geo Mean): 235 ng/mL
- Cmax (112 mg, 112 mg single IV infusion, read-out: Cmax Mean): 238 ng/mL
- Cmax (112 mg, 112 mg single IV infusion, read-out: Cmax Median): 250 ng/mL
- Vd (112 mg, 112 mg single IV infusion, read-out: Vss Mean): 97.8 L
- Vd (112 mg, 112 mg single IV infusion, read-out: Vss Median): 104 L
- Vd (112 mg, 112 mg single IV infusion, read-out: Vz Mean): 289 L
- Vd (112 mg, 112 mg single IV infusion, read-out: Vz Median): 301 L
- Tmax (112 mg, 112 mg single IV infusion, read-out: tmax Mean): 4.25 h
- Tmax (112 mg, 112 mg single IV infusion, read-out: tmax Median): 4 h
- AUC (134.4 mg, 134.4 mg single IV infusion, read-out: AUC24 Geo Mean): 2660 ng·h/mL
- AUC (134.4 mg, 134.4 mg single IV infusion, read-out: AUC24 Mean): 2690 ng·h/mL
- AUC (134.4 mg, 134.4 mg single IV infusion, read-out: AUC24 Median): 2670 ng·h/mL
- AUC(0-inf) (134.4 mg, 134.4 mg single IV infusion, read-out: AUCinf Geo Mean): 2680 ng·h/mL
- AUC(0-inf) (134.4 mg, 134.4 mg single IV infusion, read-out: AUCinf Mean): 2720 ng·h/mL
- AUC(0-inf) (134.4 mg, 134.4 mg single IV infusion, read-out: AUCinf Median): 2680 ng·h/mL
- AUC(0-t) (134.4 mg, 134.4 mg single IV infusion, read-out: AUClast Geo Mean): 2660 ng·h/mL
- AUC(0-t) (134.4 mg, 134.4 mg single IV infusion, read-out: AUClast Mean): 2690 ng·h/mL
- AUC(0-t) (134.4 mg, 134.4 mg single IV infusion, read-out: AUClast Median): 2670 ng·h/mL
- clearance (134.4 mg, 134.4 mg single IV infusion, read-out: CL Mean (converted)): 848 mL/min
- clearance (134.4 mg, 134.4 mg single IV infusion, read-out: CL Median (converted)): 839 mL/min
- concentration at 9 h (134.4 mg, 134.4 mg single IV infusion, read-out: Ceoi Geo Mean): 290 ng/mL
- concentration at 9 h (134.4 mg, 134.4 mg single IV infusion, read-out: Ceoi Mean): 292 ng/mL
- concentration at 9 h (134.4 mg, 134.4 mg single IV infusion, read-out: Ceoi Median): 300 ng/mL
